Measured values: US8853193B2, “Thienopyrimidines containing a substituted alkyl group for pharmaceutical compositions” (Boehringer Ingelheim International GmbH, priority 2010, dated 2014)
Where a name gives a salt, the structure may show the parent alone.

Molecular target: human Mnk2a (Homo sapiens (Human), UniProt Q9HBH9)
Test: Mnk2a in vitro kinase assay (indirect competitive fluorescence polarization)
Format: biochemical
Conditions: pre-activated GST-Mnk2a 2.5 nM, 20 μM ATP, 30 μM substrate peptide; read-out: MNK2 IC50
Procedure, shortened: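 GST-tagged human Mnk2a expressed in E. coli and glutathione-purified, then activated at 2.5 μM with 150 nM pre-activated NHis-ERK2 and 50 μM ATP in HEPES/KOH pH 7.4, MgCl2, DTT, Brij 78 for 45 min at 30 °C. Phospho-peptide product read by indirect competitive fluorescence polarization against fluorophore-labelled phospho-peptide bound to phospho-specific antibody.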

Chain of human Mnk2a (Q9HBH9 whole entry): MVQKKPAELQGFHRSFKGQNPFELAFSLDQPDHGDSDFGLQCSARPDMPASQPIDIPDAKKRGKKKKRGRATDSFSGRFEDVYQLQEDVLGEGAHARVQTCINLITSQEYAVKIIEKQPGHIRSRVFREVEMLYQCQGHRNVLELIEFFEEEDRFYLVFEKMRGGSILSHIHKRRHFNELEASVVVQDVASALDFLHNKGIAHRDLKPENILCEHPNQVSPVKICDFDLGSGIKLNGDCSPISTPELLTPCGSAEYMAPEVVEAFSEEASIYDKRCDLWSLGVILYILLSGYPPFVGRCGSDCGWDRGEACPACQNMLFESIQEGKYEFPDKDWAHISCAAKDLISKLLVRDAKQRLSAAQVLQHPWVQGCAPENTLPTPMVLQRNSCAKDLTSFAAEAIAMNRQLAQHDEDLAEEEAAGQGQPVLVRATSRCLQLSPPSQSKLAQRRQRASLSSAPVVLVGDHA

Compound | IC50
Cc1c(C(N)=O)sc2ncnc(Nc3ccc(F)cc3OCC3CC3(F)F)c12 (stereo not drawn) [Compound 32-21] | 0.008 µM
COC(=O)c1sc2ncnc(Nc3ccc(F)cc3OC(C)C(=O)NCCN(C)C)c2c1C (stereo not drawn) [Compound 62, 4-{2-[1-(2-Dimethylamino-ethylcabamoyl)-ethoxy]-4-fluoro-phenylamino}-5-methyl-thieno[2,3-d]pyrimidine-6-carboxylic acid methyl ester] | 0.267 µM
Cc1c(C(=O)NCCCN(C)C)sc2ncnc(Nc3cccnc3OCC(F)F)c12 [Compound 30-5, 4-(2-(2,2-difluoroethoxy)-pyridin-3-ylamino)-N-(3-(dimethyl-amino)propyl)-5-methyl-thieno[2,3-d]pyrimidine-6-carbox-amide hydro-chloride] | 0.057 µM
Cc1c(C(=O)NCc2cnco2)sc2ncnc(Nc3cccnc3OC(C)C)c12 [Compound 36-8, 4-(2-Isopropoxypyridin-3ylamino)-5-methyl-N-(oxazol-5-ylmethyl)thieno[2,3-d]pyrimidine-6-carboxamide] | 0.019 µM
CNC(=O)CNC(=O)c1sc2ncnc(Nc3cccnc3OC(C)C)c2c1C [Compound 36-7, 4-(2-Isopropoxypyridin-3ylamino)-5-methyl-N-(2-(methylamino)-2-oxoethyl)thieno[2,3-d]pyrimidine-6-carboxamide] | 0.027 µM
Cc1c(C(=O)NCCCN(C)C)sc2ncnc(Nc3ccc(F)cc3OCC3CCOCC3)c12 [Compound 26-3] | 0.79 µM
Cc1c(C(N)=O)sc2ncnc(Nc3ccc(F)cc3OC(C)CNC(=O)OC(C)(C)C)c12 (stereo not drawn) [Compound 5, tert-Butyl 2-(2-(6-carbamoyl-5-methyl-thieno[2,3-d]pyrimidin-4-ylamino)-5-fluorophenoxy)propylcarbamate] | 0.23 µM
Cc1c(C(=O)NCCCN(C)C)sc2ncnc(Nc3ccc(F)cc3OCCO)c12 [Compound 32-34] | 0.069 µM
Cc1c(C(N)=O)sc2ncnc(Nc3cccnc3OCCO)c12 [Compound 29-3, 4-(2-(2-Hydroxyethoxy)pyridin-3-ylamino)-5-methylthieno[2,3-d]pyrimidine-6-carboxamide] | 0.086 µM
Cc1c(C(=O)N[C@@H]2C[C@H]2NC(=O)OC(C)(C)C)sc2ncnc(Nc3ccc(F)cc3OC(CF)CF)c12 [Compound 23-5, Tert-butyl (1R,2R)-2-(4-2(1,3-difluoro-propan-[2,3-d]pyrimidine-6-carboxamido)cyclopropyl carbamate] | 0.013 µM
COC(=O)c1sc2ncnc(Nc3ccc(F)cc3OC(C)CCN)c2c1C (stereo not drawn) [Compound 12, Methyl 4-(2-(4-aminobutan-2yloxy)-4-fluorophenylamino)-5-methyl-thieno[2,3-d]pyrimidine-6-carboxylate hydrochloride] | 0.052 µM
Cc1c(C(=O)NCCO)sc2ncnc(Nc3cccnc3OC(C)CCNS(C)(=O)=O)c12 (stereo not drawn) [Compound 43, 4-[2-(3-Methanesulfonylamino-1-methyl-propoxy)-pyridin-3-ylamino]-5-methyl-thieno[2,3-d]pyrimidine-6-carboxylic acid (2-hydroxy-ethyl)-amide] | 0.062 µM
Cc1c(C(N)=O)sc2ncnc(Nc3cccnc3OC(C)C)c12 [Compound 35, 4-(2-Isopropoxypyridin-3-ylamino)-5-methyl-thieno[2,3-d]pyrimidine-6-carboxamide] | 0.012 µM
Cc1c(C(=O)NC2CCN(C)CC2)sc2ncnc(Nc3cccnc3OC(C)C(F)(F)F)c12 (stereo not drawn) [Compound 21-4, 5-methyl-N-(1-methylpiperidin-4-yl)-4-(2-(1,1,1-trifluoropropan-2-yloxy)pyridin-3-ylamino)thieno[2,3-d]pyrrimidine-6-carboxamide] | 0.054 µM
COCC(CF)Oc1cc(F)ccc1Nc1ncnc2sc(C(=O)NCCCN(C)C)c(C)c12 (stereo not drawn) [Compound 32-24] | 0.025 µM
Cc1c(C(=O)NCCCN(C)C)sc2ncnc(Nc3cccnc3OC(C)C(F)(F)F)c12 (stereo not drawn) [Compound 21-5, N-(3-(dimethyl-amino)propyl)-5-methyl-4-(2-(1,1,1-trifluoro-propan-2-yloxy)-pyridin-3-yl-amino)thieno[2,3-d]pyrimidine-6-carboxamide] | 0.042 µM
CCOCC(COCC)Oc1cc(F)ccc1Nc1ncnc2sc(C(N)=O)c(C)c12 [Compound 22-3, 4-(2-(1,3-Diethoxypropan-2-yloxy)-4-fluorophenylamino)-5-methyl-thieno[2,3-d]pyrimidine-6-carboxamide] | 0.296 µM
CCNC(=O)C(C)Oc1cc(F)ccc1Nc1ncnc2sc(C(=O)NCCO)c(C)c12 (stereo not drawn) [Compound 41] | 0.031 µM
CNC(=O)c1sc2ncnc(Nc3ccc(F)cc3OC(C)CN)c2c1C (stereo not drawn) [Compound 2-4, 4-(2-(1-Amino-propan-2-yloxy)-4-fluorophenylamino)-N-5-methyl-thieno[2,3-d]-pyrimidin-6-carboxamide trifluoroacetate] | 0.023 µM
Cc1c(C(N)=O)sc2ncnc(Nc3ccc(F)cc3OCCO)c12 [Compound 32-32] | 0.027 µM
Cc1c(C(=O)NCCO)sc2ncnc(Nc3ccc(F)cc3OCC(F)F)c12 [Compound 32-18] | 0.03 µM

Compound | IC50
COCC(CF)Oc1cc(F)ccc1Nc1ncnc2sc(C(=O)NCCO)c(C)c12 (stereo not drawn) [Compound 32-23] | 0.026 µM
Cc1c(C(=O)NCCO)sc2ncnc(Nc3cccnc3OCC(C)F)c12 (stereo not drawn) [Compound 27-3, 4-(2-(2-Fluoropropoxy)pyridin-3-ylamino)-N-(2-hydroxyethyl)-5-methyl-thieno[2,3-d]pyrimidine-6-carboxamide] | 0.058 µM
Cc1c(C(=O)NCCO)sc2ncnc(Nc3ccc(F)cc3OC(CF)CF)c12 [Compound 23-8] | 0.008 µM
Cc1c(C(=O)NCCN(C)C)sc2ncnc(Nc3ccc(F)cc3OC(CF)CF)c12 [Compound 23-7, 4-(2-(1,3-difluoro-propan-2-yloxy)-4-fluorophenylamino)-N-(2-(dimethylamino)-ethyl)-5-methylthieno-[2,3-d]-pyrimidine-6-carboxamide] | 0.017 µM
COC(=O)c1sc2ncnc(Nc3ccc(F)cc3OC(CN)CN)c2c1C [Compound 18-2, Methyl 4-(2-(1,3-diaminopropan-2-yloxy)-4-fluorophenylamino)-5-methylthieno[2,3-d]pyrimidine-6-carboxylate bis(trifluoroacetate)] | 0.691 µM
Cc1c(C(N)=O)sc2ncnc(Nc3cccnc3OC(C)CCN)c12 (stereo not drawn) [Compound 16-4] | 0.044 µM
COC(=O)c1sc2ncnc(Nc3ccc(F)cc3OC(CN)CNC(C)=O)c2c1C (stereo not drawn) [Compound 19-1, Methyl 4-(2-(1-acetamido-3-aminopropan-2-yloxy)-4-fluorophenylamino)-5-methylthieno[2,3-d]pyrimidine-6-carboxylate trifluoroacetate] | 1.53 µM
COC(=O)c1sc2ncnc(Nc3ccc(F)cc3OC(C)C(=O)O)c2c1C (stereo not drawn) [Compound 55, 4-[2-(1-Carboxy-ethoxy)-4-fluoro-phenylamino]-5-methyl-thieno[2,3-d]pyrimidine-6-carboxylic acid methyl ester] | 5.4 µM
Cc1c(C(=O)O)sc2ncnc(Nc3ccc(F)cc3OCC(C)F)c12 (stereo not drawn) [Compound 32-12] | 0.012 µM
Cc1c(C(=O)O)sc2ncnc(Nc3cccnc3OCC(C)F)c12 (stereo not drawn) [Compound 27-2, 4-(2-(2-Fluoropropoxy)pyridin-3-ylamino)-5-methyl-thieno[2,3-d]pyrimidine-6-carboxylic acid] | 0.033 µM
Cc1c(C(=O)NCCCN(C)C)sc2ncnc(Nc3ccc(F)cc3OC(C)CN)c12 (stereo not drawn) [Compound 2-2, 4-(2-(1-Amino-propan-2-yloxy)-4-fluorophenylamino)-N-(3-(diemthyl-amino)propyl)-5-methylthieno[2,3-d]pyrimidine-6-carboxamide bis(trifloroacetate)] | 0.041 µM
COCC(CF)Oc1cc(F)ccc1Nc1ncnc2sc(C(=O)O)c(C)c12 (stereo not drawn) [Compound 32-6] | 0.023 µM
Cc1c(C(=O)NCCCN(C)C)sc2ncnc(Nc3ccc(F)cc3OC(C)CNC(=O)OC(C)(C)C)c12 (stereo not drawn) [Compound 1-4, tert-Butyl 2-(2-(6-(3-(dimethymino)propyl-carbamoyl)-5-methyl-thieno[2,3-d]pyrimidin-4-ylamino)-5-fluoro-phenoxy)propyl-carbamate] | 0.294 µM
Cc1c(C(=O)O)sc2ncnc(Nc3ccc(F)cc3OCC3CC3(F)F)c12 (stereo not drawn) [Compound 32-5] | 0.008 µM
Cc1c(C(=O)NCC2COCCN2)sc2ncnc(Nc3cccnc3OC(C)C)c12 (stereo not drawn) [Compound 36-14, 4-(2-Isopropoxypyridin-3ylamino)-5-methyl-N-(morpholin-3-ylmethyl) thieno[2,3-d]pyrimidine-6-carboxamide] | 0.064 µM
Cc1c(C(=O)O)sc2ncnc(Nc3ccc(F)cc3OCC3(CC#N)CC3)c12 [Compound 32-2] | 0.019 µM
Cc1c(C(=O)NCCO)sc2ncnc(Nc3ccc(F)cc3OC(C)CNC(=O)OC(C)(C)C)c12 (stereo not drawn) [Compound 1-5, tert-Butyl 2-(5-fluoro-2-(6-(2-hydroxyethyl-carbamoyl)-5-methylthieno[2,3-d]-pyrimidin-4-yl-amino)-phenoxy)propyl-carbamate] | 0.459 µM
COCC(CF)Oc1cc(F)ccc1Nc1ncnc2sc(C(=O)NCCO)c(C)c12 (stereo not drawn) [Compound 32-25] | 0.013 µM
Cc1c(C(=O)O)sc2ncnc(Nc3ccc(F)cc3OC(C)CC(C)(C)O)c12 (stereo not drawn) [Compound 20-2, 4-(4-fluoro-2-(4-hydroxy-4-methylpentan-2-yloxy)phenylamino)-5-methyl-thieno[2,3-d]pyrimidine-6-carboxylic acid] | 0.025 µM
Cc1c(C(=O)NCCO)sc2ncnc(Nc3ccc(F)cc3OCC3(CC#N)CC3)c12 [Compound 32-14] | 0.065 µM
Cc1c(C(=O)NCCCN(C)C)sc2ncnc(Nc3cccnc3OC(C)C)c12 [Compound 36, N-(3-(Dimethylamino)propyl)-4-(2-isopropoxypyridin-3-ylamino)-5-methyl-thieno[2,3-d]pyrimidine-6-carboxamide] | 0.029 µM
